Test results from patent US20240016781A1, “TREATMENT OF KRAS MUTANT CANCERS” (MEI Pharma, Inc., priority 2020, published 2024).
Like-named read-outs stand apart in the source and are kept apart here.

Legend:
Test in all cases: 72-hour CellTiter-Glo 2.0 growth inhibition screen (single agent, 9x9 combination dose matrix);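 as to Best CI Level: inhibition effect level at which the best CI was calculated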
Format in all cases: cell-based
[1] = tested on: Panc 04.03; conditions: for Response Area: Panc 04.03, Pancreas;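 as to Best CI Level: inhibition effect level at which the best CI was calculated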
[2] = tested on: KYSE-410; conditions: for EC50 / Emax: Homo sapiens; for EC50: KYSE-410, 72 h; for EC50 / Emax / Response Area: KYSE-410, Esophageal;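 as to Best CI Level: inhibition effect level at which the best CI was calculated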
[3] = tested on: HPAF-II; conditions: for Response Area / EC50 / Emax: HPAF-II, Pancreas; for EC50 / Emax: Homo sapiens;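 as to Best CI Level: inhibition effect level at which the best CI was calculated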
[4] = tested on: HCC1171;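 as to Best CI Level: inhibition effect level at which the best CI was calculated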
[5] = tested on: SW48; conditions: for EC50 / Emax: Homo sapiens; for EC50: SW48, 72 h; for EC50 / Emax / Response Area: SW48, Colorectal;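 as to Best CI Level: inhibition effect level at which the best CI was calculated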
[6] = Panc 04.03 (KRAS G12D), enhancer + MEI-522 (Voruciclib), 72 h;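 as to Best CI Level: inhibition effect level at which the best CI was calculated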
[7] = Additional Single Agent Responses (inhibition, % I), 72 h
[8] = growth inhibition (GI), AUC, single agent, 72 h
[9] = enhancer combined with MEI-522 (Voruciclib), Panc 04.03 (Pancreas), 72 hours, inhibition data
[10] = growth inhibition (GI) curve, single agent, 72 h
[11] = Additional Single Agent Responses, 72 h, read-out: Max Response (% I)
[12] = growth inhibition (GI), single agent, 72 h, read-out: Max Response (% GI)
[13] = KYSE-410 (KRAS G12C), enhancer + MEI-522 (Voruciclib), 72 h;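 as to Best CI Level: inhibition effect level at which the best CI was calculated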
[14] = enhancer combined with MEI-522 (Voruciclib), KYSE-410 (Esophageal), 72 hours, inhibition data
[15] = HPAF-II (KRAS G12D), enhancer + MEI-522 (Voruciclib), 72 h;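 as to Best CI Level: inhibition effect level at which the best CI was calculated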
[16] = enhancer combined with MEI-522 (Voruciclib), HPAF-II (Pancreas), 72 hours, inhibition data
[17] = HCC1171 (KRAS G12C), enhancer + MEI-522 (Voruciclib), 72 h;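 as to Best CI Level: inhibition effect level at which the best CI was calculated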
[18] = HCC1171, Lung, Additional Single Agent Responses (inhibition, % I), 72 h
[19] = enhancer combined with MEI-522 (Voruciclib), HCC1171 (Lung), 72 hours, inhibition data
[20] = SW48 (KRAS WT), enhancer + MEI-522 (Voruciclib), 72 h;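 as to Best CI Level: inhibition effect level at which the best CI was calculated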
[21] = enhancer combined with MEI-522 (Voruciclib), SW48 (Colorectal), 72 hours, inhibition data

Structure (SMILES): C=CC(=O)N1CCN(c2nc(=O)n(-c3c(C)ccnc3C(C)C)c3nc(-c4c(O)cccc4F)c(F)cc23)[C@@H](C)C1 [AMG510]
- EC50 ([1]; Homo sapiens, Panc 04.03, 72 h): 3000 nM
- Emax ([1]; Homo sapiens, Panc 04.03, 72 h, read-out: Max Response (% GI)): 25%
- Emax ([1]; Homo sapiens, Panc 04.03, 72 h, read-out: Max Response (% I)): 19%
- Best CI [1, 6]: 0.51
- Bliss Volume [1, 6]: 2.52
- HSA volume [1, 6]: −2.59
- Loewe Volume [1, 6]: 2.70
- Synergy Score [1, 6]: 3.01
- Response Area [1, 7]: 0.00
- Response Area [1, 8]: 0.00
- Best CI [1, 9]: 0.60
- Best CI Level [1, 9]: 20
- Bliss Volume [1, 9]: 0.79
- HSA volume [1, 9]: −2.11
- Loewe Volume [1, 9]: 1.18
- Synergy Score [1, 9]: 1.06
- EC50 [2, 7]: 5.8 nM
- EC50 [2, 10]: 6 nM
- Emax [2, 11]: 20%
- Emax [2, 12]: 24%
- Best CI [2, 13]: 1.14
- Bliss Volume [2, 13]: 1.47
- HSA volume [2, 13]: 2.26
- Loewe Volume [2, 13]: 2.48
- Synergy Score [2, 13]: 1.71
- Response Area [2, 7]: 0.88
- Response Area [2, 8]: 1.06
- Best CI [2, 14]: 1.14
- Bliss Volume [2, 14]: 1.06
- HSA volume [2, 14]: 1.87
- Loewe Volume [2, 14]: 2.13
- Synergy Score [2, 14]: 1.19
- Best CI Level ([2]; enhancer combined with MEI-522 (Voruciclib), KYSE-410 (Esophageal), 72 hours, inhibition data, unit assumed): 45%
- Best CI [3, 15]: 0.06
- Bliss Volume [3, 15]: −3.31
- HSA volume [3, 15]: −4.44
- Loewe Volume [3, 15]: −3.46
- Synergy Score [3, 15]: 0.12
- Response Area [3, 7]: 0.32
- Response Area [3, 8]: 0.47
- EC50 ([3]; 72 h, Additional Single Agent Responses (inhibition, % I)): 2400 nM
- EC50 ([3]; 72 h, growth inhibition (GI) curve, single agent): 2540 nM
- Emax [3, 11]: 11%
- Emax [3, 12]: 15%
- Best CI [3, 16]: 1.03
- Bliss Volume [3, 16]: −2.30
- HSA volume [3, 16]: −3.13
- Loewe Volume [3, 16]: −2.28
- Synergy Score [3, 16]: 0.09
- Best CI Level ([3]; enhancer combined with MEI-522 (Voruciclib), HPAF-II (Pancreas), 72 hours, inhibition data, unit assumed): 20%
- Best CI [4, 17]: 0.26
- Bliss Volume [4, 17]: 3.26
- HSA volume [4, 17]: 4.61
- Loewe Volume [4, 17]: 6.02
- Synergy Score [4, 17]: 7.42
- EC50 [4, 18]: 2.8 nM
- Response Area [4, 18]: 1.99
- Emax ([4]; HCC1171, Lung, Additional Single Agent Responses, 72 h, read-out: Max Response (% I)): 48%
- GI50 ([4]; HCC1171, Lung, growth inhibition (GI) curve, single agent, 72 h): 5.5 nM
- Response Area ([4]; HCC1171, Lung, growth inhibition (GI), AUC, single agent, 72 h): 3.50
- Emax ([4]; HCC1171, Lung, growth inhibition (GI), single agent, 72 h, read-out: Max Response (% GI)): 85%
- Best CI [4, 19]: 0.22
- Bliss Volume [4, 19]: −0.99
- HSA volume [4, 19]: 2.26
- Loewe Volume [4, 19]: 3.06
- Synergy Score [4, 19]: 2.15
- Best CI Level ([4]; enhancer combined with MEI-522 (Voruciclib), HCC1171 (Lung), 72 hours, inhibition data, unit assumed): 50%
- EC50 [5, 7]: 2710 nM
- EC50 [5, 10]: 2720 nM
- Emax [5, 11]: 14%
- Emax [5, 12]: 17%
- Best CI [5, 20]: 0.46
- Bliss Volume [5, 20]: 2.71
- HSA volume [5, 20]: 0.73
- Loewe Volume [5, 20]: 2.40
- Synergy Score [5, 20]: 4.05
- Response Area [5, 7]: 0.48
- Response Area [5, 8]: 0.61
- Best CI [5, 21]: 0.50
- Bliss Volume [5, 21]: 1.20
- HSA volume [5, 21]: 0.35
- Loewe Volume [5, 21]: 1.24
- Synergy Score [5, 21]: 1.36
- Best CI Level ([5]; enhancer combined with MEI-522 (Voruciclib), SW48 (Colorectal), 72 hours, inhibition data, unit assumed): 35%
